IC50 data for 35 compounds are collected here from US20230150970A1, “AMINOPYRIMIDINE DERIVATIVES AND THEIR USE AS ARYL HYDROCARBON RECEPTOR MODULATORS” (DONG-A ST CO., LTD., priority 2020, published 2023).

The target in the test is T1, AhR (Homo sapiens, UniProt P35869).
T1 sequence (P35869 11-848): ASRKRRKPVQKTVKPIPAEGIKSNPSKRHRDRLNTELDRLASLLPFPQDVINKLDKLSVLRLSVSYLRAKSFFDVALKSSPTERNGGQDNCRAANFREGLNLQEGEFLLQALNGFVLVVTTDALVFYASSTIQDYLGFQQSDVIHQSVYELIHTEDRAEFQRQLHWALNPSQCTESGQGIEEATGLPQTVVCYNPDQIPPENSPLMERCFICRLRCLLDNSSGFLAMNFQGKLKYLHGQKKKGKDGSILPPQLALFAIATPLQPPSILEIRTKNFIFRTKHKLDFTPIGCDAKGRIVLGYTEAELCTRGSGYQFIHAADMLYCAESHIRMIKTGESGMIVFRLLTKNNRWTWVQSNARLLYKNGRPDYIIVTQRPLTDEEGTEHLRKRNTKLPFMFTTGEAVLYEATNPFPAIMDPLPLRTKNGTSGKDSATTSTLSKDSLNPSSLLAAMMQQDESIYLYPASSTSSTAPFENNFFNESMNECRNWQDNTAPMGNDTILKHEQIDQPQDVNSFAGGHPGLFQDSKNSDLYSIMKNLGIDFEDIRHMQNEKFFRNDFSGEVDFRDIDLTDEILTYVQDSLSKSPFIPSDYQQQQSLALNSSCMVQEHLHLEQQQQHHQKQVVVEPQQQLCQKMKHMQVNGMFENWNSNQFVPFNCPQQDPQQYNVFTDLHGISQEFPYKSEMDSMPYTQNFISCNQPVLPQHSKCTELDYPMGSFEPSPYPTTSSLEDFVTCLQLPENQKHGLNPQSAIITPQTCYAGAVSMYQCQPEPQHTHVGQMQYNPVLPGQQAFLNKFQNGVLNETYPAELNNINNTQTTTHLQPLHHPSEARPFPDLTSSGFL
The test can be described thus: In Vitro Assay 1: XRE-luciferase reporter assay, antagonism in human cell line (HepG2). Conditions: Assay 1: AhR-Luc Human Antagonism (IC50, nM), values marked *: kynurenine 50 μM, 6 hours. (A reporter such as luciferase makes a cellular process visible.)

`O[C@@H]1CCCC[C@H]1Nc1cc(-c2ccc(Cl)cc2)nc(-c2cccnc2)n1` (relative stereo) [Example 35, trans-2-((6-(4-chlorophenyl)-2-(pyridin-3-yl)pyrimidin-4-yl)amino)cyclohexan-1-ol] came in with an IC50 of over 1000 nM.
The result for `O[C@@H]1CCC[C@H]1Nc1cc(-c2ccc(Cl)cc2)nc(-c2cccnc2)n1` (relative stereo) [Example 68, trans-2-((6-(4-chlorophenyl)-2-(pyridin-3-yl)pyrimidin-4-yl)amino)cyclopentan-1-ol] reads 10 to 100 nM; that for `C[C@@H]1CN(c2cc(-c3ccc(Cl)cc3)nc(-c3cccnc3)n2)[C@@H](C)CN1` (relative stereo) [Example 103, Trans-4-(4-chlorophenyl)-6-(2,5-dimethylpiperazin-1-yl)-2-(pyridin-3-yl)pyrimidine], over 1000 nM.
For the compound `Clc1ccc(-c2cc(N[C@@H]3COC[C@H]3N3CCCC3)nc(-c3cccnc3)n2)cc1` (relative stereo) [Example 201, Trans-6-(4-chlorophenyl)-2-(pyridin-3-yl)-N-(4-(pyrrolidin-1-yl)tetrahydrofuran-3-yl)pyrimidin-4-amine], the IC50 is over 1000 nM.
For the compound `CC(C)N1C[C@@H](O)[C@H](Nc2cc(-c3ccc(Cl)cc3)nc(-c3cccnc3)n2)C1` (relative stereo) [Example 209, Trans-4-((6-(4-chlorophenyl)-2-(pyridin-3-yl)pyrimidin-4-yl)amino)-1-isopropylpyrrolidin-3-ol], the IC50 was over 1000 nM.
The same measure for `C[C@@H](CO)Nc1cc(-c2ccc(Cl)cc2)nc(-c2cccnc2)n1` [Example 2, (S)-2-((6-(4-chlorophenyl)-2-(pyridin-3-yl)pyrimidin-4-yl)amino)propan-1-ol]: 100 to 1000 nM; for `C[C@@H](CO)Nc1nc(-c2ccc(Cl)cc2)cc(-c2cccnc2)n1` [Example 3, (S)-2-((4-(4-chlorophenyl)-6-(pyridin-3-yl)pyrimidin-2-yl)amino)propan-1-ol]: 100 to 1000 nM; for `CC(C)(CO)Nc1cc(-c2ccc(Cl)cc2)nc(-c2cccnc2)n1` [Example 4, 2-((6-(4-chlorophenyl)-2-(pyridin-3-yl)pyrimidin-4-yl)amino)-2-methylpropan-1-ol]: 100 to 1000 nM.
The result for `CC(C)(CO)Nc1nc(-c2ccc(Cl)cc2)cc(-c2cccnc2)n1` [Example 5, 2-((4-(4-chlorophenyl)-6-(pyridin-3-yl)pyrimidin-2-yl)amino)-2-methylpropan-1-ol] reads over 1000 nM; that for `OCCNc1cc(-c2ccc(Cl)cc2)nc(-c2cccnc2)n1` [Example 6, 2-((6-(4-chlorophenyl)-2-(pyridin-3-yl)pyrimidin-4-yl)amino)ethan-1-ol], 100 to 1000 nM.
The result for `OCCCNc1cc(-c2ccc(Cl)cc2)nc(-c2cccnc2)n1` [Example 7, 3-((6-(4-chlorophenyl)-2-(pyridin-3-yl)pyrimidin-4-yl)amino)propan-1-ol] reads over 1000 nM.
Take `C[C@H](O)CNc1cc(-c2ccc(Cl)cc2)nc(-c2cccnc2)n1` [Example 8, (S)-1-((6-(4-chlorophenyl)-2-(pyridin-3-yl)pyrimidin-4-yl)amino)propan-2-ol]: the IC50 was in the range of 100 to 1000 nM.
The same measure for `C[C@@H](O)CNc1cc(-c2ccc(Cl)cc2)nc(-c2cccnc2)n1` [Example 9, (R)-1-((6-(4-chlorophenyl)-2-(pyridin-3-yl)pyrimidin-4-yl)amino)propan-2-ol]: 100 to 1000 nM; for `OCC(O)CNc1cc(-c2ccc(Cl)cc2)nc(-c2cccnc2)n1` (centres unmarked) [Example 10, 3-((6-(4-chlorophenyl)-2-(pyridin-3-yl)pyrimidin-4-yl)amino)propane-1,2-diol]: 100 to 1000 nM.
Regarding `C[C@H](CO)Nc1cc(-c2ccc(Cl)cc2)nc(-c2cccnc2)n1` [Example 11, (R)-2-((6-(4-chlorophenyl)-2-(pyridin-3-yl)pyrimidin-4-yl)amino)propan-1-ol], the IC50 is 10 to 100 nM.
Consider `CC(C)C(CO)Nc1cc(-c2ccc(Cl)cc2)nc(-c2cccnc2)n1` (centres unmarked) [Example 12, 2-((6-(4-chlorophenyl)-2-(pyridin-3-yl)pyrimidin-4-yl)amino)-3-methylbutan-1-ol], for which the IC50 fell in the range of 100 to 1000 nM.
The result for `CC(C)[C@@H](CO)Nc1cc(-c2ccc(Cl)cc2)nc(-c2cccnc2)n1` [Example 13, (S)-2-((6-(4-chlorophenyl)-2-(pyridin-3-yl)pyrimidin-4-yl)amino)-3-methylbutan-1-ol] reads over 1000 nM.
On to `CC(C)[C@H](CO)Nc1cc(-c2ccc(Cl)cc2)nc(-c2cccnc2)n1` [Example 14, (R)-2-((6-(4-chlorophenyl)-2-(pyridin-3-yl)pyrimidin-4-yl)amino)-3-methylbutan-1-ol], for which the IC50 was over 1000 nM.
The compound `CCC(CO)Nc1cc(-c2ccc(Cl)cc2)nc(-c2cccnc2)n1` (centres unmarked) [Example 15, 2-((6-(4-chlorophenyl)-2-(pyridin-3-yl)pyrimidin-4-yl)amino)butan-1-ol] returned an IC50 of over 1000 nM.
In the case of `OCC(CO)Nc1cc(-c2ccc(Cl)cc2)nc(-c2cccnc2)n1` [Example 16, 2-((6-(4-chlorophenyl)-2-(pyridin-3-yl)pyrimidin-4-yl)amino)propane-1,3-diol], the IC50 was over 1000 nM.
The result for `O[C@@H](CNc1cc(-c2ccc(Cl)cc2)nc(-c2cccnc2)n1)c1ccccc1` [Example 17, (R)-2-((6-(4-chlorophenyl)-2-(pyridin-3-yl)pyrimidin-4-yl)amino)-1-phenylethan-1-ol] reads over 1000 nM; that for `O[C@H](CNc1cc(-c2ccc(Cl)cc2)nc(-c2cccnc2)n1)c1ccccc1` [Example 18, (S)-2-((6-(4-chlorophenyl)-2-(pyridin-3-yl)pyrimidin-4-yl)amino)-1-phenylethan-1-ol], over 1000 nM.
The compound `Clc1ccc(-c2cc(NCC3CCOCC3)nc(-c3cccnc3)n2)cc1` [Example 19, 6-(4-chlorophenyl)-2-(pyridin-3-yl)-N-((tetrahydro-2H-pyran-4-yl)methyl)pyrimidin-4-amine] displayed an IC50 of 100 to 1000 nM.
Consider `CN(C)CCCNc1cc(-c2ccc(Cl)cc2)nc(-c2cccnc2)n1` [Example 20, N^1-(6-(4-chlorophenyl)-2-(pyridin-3-yl)pyrimidin-4-yl)-N^3,N^3-dimethylpropane-1,3-diamine], for which the IC50 is over 1000 nM.
For `CCNc1cc(-c2ccc(Cl)cc2)nc(-c2cccnc2)n1` [Example 21, 6-(4-chlorophenyl)-N-ethyl-2-(pyridin-3-yl)pyrimidin-4-amine], the IC50 was 100 to 1000 nM.
The same measure for `CCCNc1cc(-c2ccc(Cl)cc2)nc(-c2cccnc2)n1` [Example 22, 6-(4-chlorophenyl)-N-propyl-2-(pyridin-3-yl)pyrimidin-4-amine]: 100 to 1000 nM.
The same measure for `CCCCNc1cc(-c2ccc(Cl)cc2)nc(-c2cccnc2)n1` [Example 23, N-butyl-6-(4-chlorophenyl)-2-(pyridin-3-yl)pyrimidin-4-amine]: over 1000 nM.
The result for `CCC(O)CNc1cc(-c2ccc(Cl)cc2)nc(-c2cccnc2)n1` (centres unmarked) [Example 24, 1-((6-(4-chlorophenyl)-2-(pyridin-3-yl)pyrimidin-4-yl)amino)butan-2-ol] reads 100 to 1000 nM; that for `Clc1ccc(-c2cc(NCC3CC3)nc(-c3cccnc3)n2)cc1` [Example 25, 6-(4-chlorophenyl)-N-(cyclopropylmethyl)-2-(pyridin-3-yl)pyrimidin-4-amine], over 1000 nM.
`Clc1ccc(-c2cc(NC3CCCC3)nc(-c3cccnc3)n2)cc1` [Example 26, 6-(4-chlorophenyl)-N-cyclopentyl-2-(pyridin-3-yl)pyrimidin-4-amine] yielded a half-maximal inhibitory concentration (IC50) of over 1000 nM.
The same measure for `CC(C)(C)Nc1cc(-c2ccc(Cl)cc2)nc(-c2cccnc2)n1` [Example 28, N-(tert-butyl)-6-(4-chlorophenyl)-2-(pyridin-3-yl)pyrimidin-4-amine]: over 1000 nM; for `O[C@@H]1CCC[C@H]1Nc1cc(-c2ccc(Cl)cc2)nc(-c2cccnc2)n1` [Example 29, (1R,2R)-2-((6-(4-chlorophenyl)-2-(pyridin-3-yl)pyrimidin-4-yl)amino)cyclopentan-1-ol]: 10 to 100 nM.
For `O[C@H]1CCC[C@H]1Nc1cc(-c2ccc(Cl)cc2)nc(-c2cccnc2)n1` [Example 30, (1S,2R)-2-((6-(4-chlorophenyl)-2-(pyridin-3-yl)pyrimidin-4-yl)amino)cyclopentan-1-ol], the IC50 lay in the range of 10 to 100 nM.
As to `Clc1ccc(-c2cc(NCc3ccccn3)nc(-c3cccnc3)n2)cc1` [Example 31, 6-(4-chlorophenyl)-N-(pyridin-2-ylmethyl)-2-(pyridin-3-yl)pyrimidin-4-amine], the IC50 lay within 100 to 1000 nM.
`Clc1ccc(-c2cc(NCc3cccnc3)nc(-c3cccnc3)n2)cc1` [Example 32, 6-(4-chlorophenyl)-2-(pyridin-3-yl)-N-(pyridin-3-ylmethyl)pyrimidin-4-amine] had an IC50 of 100 to 1000 nM.

One may read the IC50 as the concentration that inhibits the measured activity by half. A low value points to greater potency.
